Laboratory results taken from US20100113465A1, “7-AZASPIRO[3.5]NONANE-7-CARBOXAMIDE COMPOUNDS” (Pfizer Inc., priority 2008, published 2010).

Key:
human FAAH = molecular target: T1, human FAAH (Homo sapiens, UniProt O00519); test: FAAH assay, human FAAH enzyme inhibition (kinact/Ki); format: biochemical; details: oleamide substrate 50 μM, 30° C.; for kinact/KI: read-out: hFAAH kinact/Ki
T1 construct: made in house; host or cells: E. coli
T1 sequence (O00519 1-579): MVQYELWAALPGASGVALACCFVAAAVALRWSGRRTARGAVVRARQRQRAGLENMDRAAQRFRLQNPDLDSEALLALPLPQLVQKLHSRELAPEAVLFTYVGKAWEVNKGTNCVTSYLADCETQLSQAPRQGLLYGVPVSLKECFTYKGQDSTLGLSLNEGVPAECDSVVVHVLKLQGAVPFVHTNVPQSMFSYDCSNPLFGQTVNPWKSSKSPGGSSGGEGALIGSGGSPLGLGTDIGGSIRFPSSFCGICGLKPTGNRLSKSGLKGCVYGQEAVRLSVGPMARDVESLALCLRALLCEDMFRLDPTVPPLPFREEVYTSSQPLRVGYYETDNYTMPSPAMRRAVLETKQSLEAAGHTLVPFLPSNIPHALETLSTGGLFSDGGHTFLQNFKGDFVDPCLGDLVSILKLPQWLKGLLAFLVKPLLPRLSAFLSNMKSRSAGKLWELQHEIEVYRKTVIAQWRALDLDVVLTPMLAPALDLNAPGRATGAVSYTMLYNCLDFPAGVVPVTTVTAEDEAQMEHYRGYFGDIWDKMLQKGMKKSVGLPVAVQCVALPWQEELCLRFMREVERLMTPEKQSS
Method: (§1) The FAAH assay was carried out in 384-well clear polystyrene plates (Evergreen Scientific) in a total volume of 50 μl per well in a manner similar to that described by Mileni et al., Proc. Nat. Acad. Sci. 2008, 105, 12820-12824. All percents are by volume. Serial dilutions of compound were initially prepared in 100% DMSO, and then diluted two-fold into HPLC-grade H2O to give 50% DMSO. To each well, was placed the reaction mixture (40 μl) containing 1-4 nM FAAH, 50 mM NaPi, pH 7.4, 3 mM α-ketoglutarate, 0.15 mM NADH, 7.5 U/ml glutamate dehydrogenase, 2 mM ADP, 1 mM EDTA, and 0.1% Triton X-100 (The concentration shown for each component is the final concentration in the assay). To this mixture, was added 5 μl of a compound of Examples 1 to 56 at various concentrations in 50% DMSO (or 5 μl 50% DMSO for controls). This was immediately followed by the addition of 5 μl oleamide (500 μM) dissolved in 75% EtOH/25% DMSO and the reaction mixture was mixed for 1.5 min. The final concentrations of DMSO and EtOH in the assay were each 7.5%. The reactions were incubated at 30° C. and the absorbance at 340 nm was collected over a period of 90 min with readings taken in 30-second intervals using SpectraMax Plus^384 Microplate Spectrophotometer (Molecular Devices, Sunnyvale, Calif.). The human FAAH and rat FAAH used in the assay was prepared as described in the patent application WO 2006/067613 using wild-type E. coli cells transformed in St. Louis, Mo., U.S.A. The purity of the enzyme was greater than 98% based on an analysis by SDS-polyacrylamide gel electrophoresis followed by Coomassie Blue staining.
(§2) Reaction progress curves were corrected for the non-enzymatic oxidation of NADH by subtraction of absorbancies at each time point obtained from control reactions containing no FAAH enzyme. The loss of enzyme activity as a function of time is well-described by the following mathematical equation (1) for a mono-exponential decay: […]
(§3) where At represents the absorbance at time t, A0 represents the absorbance at time zero, and C represents a constant. Observed rates of enzyme inactivation (kobs) were determined from the non-linear reaction progress curves by fitting the corrected absorbancies to an equation for a mono-exponential decay using the third-party Microsoft Excel plug-in, XLfit (IDBS Limited). Secondary plots of kobs vs. inhibitor concentration were prepared from kobs values obtained from progress curves. Second-order rates for enzyme inactivation, expressed as kinact/Ki (M^−1s^−1), were calculated from the slopes from linear regression analysis of the secondary plot of kobs vs. inhibitor concentration as defined in following equation (2), where [I]<<Ki:
(§4) The concentration of substrate in the assay was equal to the Km for oleamide of 50 μM. Therefore, reported kinact/Ki values are obtained by multiplying resulting slopes by a factor of two (i.e. slope=kinact/(Ki*2)).

rat FAAH = molecular target: T2, rat FAAH (Rattus norvegicus, UniProt P97612); test: FAAH assay, rat FAAH enzyme inhibition (kinact/Ki); format: biochemical; details: oleamide substrate 50 μM, 30° C.; for kinact/KI: read-out: rFAAH kinact/Ki
T2 construct: made in house; host or cells: E. coli
T2 sequence (P97612 1-579): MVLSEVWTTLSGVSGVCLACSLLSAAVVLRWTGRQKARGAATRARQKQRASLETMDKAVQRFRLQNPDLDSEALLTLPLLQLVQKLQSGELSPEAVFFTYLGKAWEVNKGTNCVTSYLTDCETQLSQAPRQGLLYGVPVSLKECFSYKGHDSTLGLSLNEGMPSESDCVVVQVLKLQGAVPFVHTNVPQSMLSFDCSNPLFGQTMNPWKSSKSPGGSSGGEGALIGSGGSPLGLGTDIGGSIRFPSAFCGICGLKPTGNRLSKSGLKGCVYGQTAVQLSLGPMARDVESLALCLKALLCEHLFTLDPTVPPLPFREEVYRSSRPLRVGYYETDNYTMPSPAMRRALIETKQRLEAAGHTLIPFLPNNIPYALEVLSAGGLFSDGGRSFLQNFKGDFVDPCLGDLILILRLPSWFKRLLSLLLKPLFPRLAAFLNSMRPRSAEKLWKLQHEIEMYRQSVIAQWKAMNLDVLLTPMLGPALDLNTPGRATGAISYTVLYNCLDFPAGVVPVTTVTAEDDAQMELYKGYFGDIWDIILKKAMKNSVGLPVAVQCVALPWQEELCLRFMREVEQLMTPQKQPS
Method: as §1, §2, §3, §4

Male Sprague-Dawley Rats = test: In vivo Complete Freund's Adjuvant (CFA) efficacy assay; design: species or system rat; key: (+) indicates the test compound was determined to be efficacious at 3 mpk, oral dosing; (−) indicates the test compound was determined to not be efficacious at 3 mpk, oral dosing; details: 3 mpk, oral dosing; inhibition of allodynia (PWT) four hours postdose vs vehicle, p<0.05
Method: For additional information on the CFA efficacy assay, see Jayamanne et al., Brit. J. Pharmacol. 2006, 147, 281-288. Experiments were performed on adult Male Sprague-Dawley Rats (200 g-250 g). Inflammation was induced in the left hindpaw of the rat by an intra-plantar injection of 150 uL Complete Freund's Adjuvant (CFA) (SIGMA F5881). The CFA injection immediately induces local inflammation, paw swelling, and pain that persists for at least two weeks post-injection. Baseline paw withdrawal threshold (PWT) was measured to determine the percent inhibition of allodynia using a set of Von Frey Hairs on day 4 post injection as illustrated by the Dixon Up and Down Method (W. J. Dixon, Ann. Rev. Pharmacol. Toxicol. 1980, 20:441-462). […] Test compound was administered at a concentration of 3 mg/kg (mpk) orally with the dosing vehicle 5% N,N′-Dimethylacetamide (SIGMA D137510) and 95% (40% 2-hydroxypropyl-beta-cyclodextrin in water) (SIGMA H107). Following Dose administration PWT threshold was evaluated again at four hours postdose. The Sprague-Dawley rats used in this assay were purchased from Harlan, 8520 Allison Pointe Blvd., Indianapolis, Ind., 46250, U.S.A. Sprague-Dawley rats are an outbred breed of albino rats first produced by the Sprague Dawley farms in Madison, Wis., U.S.A.
Percent Inhibition of Allodynia was determined by the formula: […]
ΔPWT measurements were averaged for each treatment group and statistical comparisons between groups were made using ANOVA and Dunnett's two-tailed test. […]

Row | Compound | kinact/KI (human FAAH) [M⁻¹ s⁻¹] | kinact/KI (rat FAAH) [M⁻¹ s⁻¹] | CFA Efficacy (Male Sprague-Dawley Rats) | hFAAH kinact/Ki (human FAAH) [M⁻¹ s⁻¹] | rFAAH kinact/Ki (rat FAAH) [M⁻¹ s⁻¹]
1 | Cn1nnnc1NC(=O)N1CCC2(CC1)CC(c1cccc(C(F)(F)F)c1F)C2 [Example 47, 2-[2-fluoro-3-(trifluoromethyl)phenyl]-N-(1-methyl-1H-tetrazol-5-yl)-7-azaspiro[3.5]nonane-7-carboxamide] | 15400 | 3330 | (+) |  | 
2 | Cc1noc(NC(=O)N2CCC3(CC2)CC(c2ccc(F)c(Cl)c2)C3)c1C [Example 14, 2-(3-chloro-4-fluorophenyl)-N-(3,4-dimethylisoxazol-5-yl)-7-azaspiro[3.5]nonane-7-carboxamide] | 4190 | 5820 | (+) |  | 
3 | Cc1cc(F)cc(C2CC3(CCN(C(=O)Nc4onc(C)c4C)CC3)C2)c1 [Example 18, N-(3,4-dimethylisoxazol-5-yl)-2-(3-fluoro-5-methylphenyl)-7-azaspiro[3.5]nonane-7-carboxamide] | 2640 | 1560 | (−) |  | 
4 | Cn1nnnc1NC(=O)N1CCC2(CC1)CC(c1cccc(Cl)c1F)C2 [Example 46, 2-(3-chloro-2-fluorophenyl)-N-(1-methyl-1H-tetrazol-5-yl)-7-azaspiro[3.5]nonane-7-carboxamide] | 14100 | 3410 | (+) |  | 
5 | CCc1noc(NC(=O)N2CCC3(CC2)CC(c2cccc(OC(F)(F)F)c2)C3)c1C [Example 34, N-(3-ethyl-4-methylisoxazol-5-yl)-2-[3-(trifluoromethoxy)phenyl]-7-azaspiro[3.5]nonane-7-carboxamide] | 1650 | 1660 | (+) |  | 
6 | Cc1noc(NC(=O)N2CCC3(CC2)CC(c2cccc(OCCOc4ccccc4Cl)c2)C3)c1C [Example 27, 2-{3-[2-(2-chlorophenoxy)ethoxy]phenyl}-N-(3,4-dimethylisoxazol-5-yl)-7-azaspiro[3.5]nonane-7-carboxamide] | 2940 | 1810 | (+) |  | 
7 | Cc1noc(NC(=O)N2CCC3(CC2)CC(c2ccc(Cl)c(Cl)c2)C3)c1C [Example 20, 2-(3,4-dichlorophenyl)-N-(3,4-dimethylisoxazol-5-yl)-7-azaspiro[3.5]nonane-7-carboxamide] | 4550 | 3470 | (+) |  | 
8 | Cc1noc(NC(=O)N2CCC3(CC2)CC(c2cccc(OCCOc4ccc(Cl)cc4)c2)C3)c1C [Example 25, 2-{3-[2-(4-chlorophenoxy)ethoxy]phenyl}-N-(3,4-dimethylisoxazol-5-yl)-7-azaspiro[3.5]nonane-7-carboxamide] | 2860 | 2340 | (+) |  | 
9 | Cc1noc(NC(=O)N2CCC3(CC2)CC(c2noc(-c4ccc(OC(F)(F)F)cc4)n2)C3)c1C [Example 15, N-(3,4-dimethylisoxazol-5-yl)-2-{5-[4-(trifluoromethoxy)phenyl]-1,2,4-oxadiazol-3-yl}-7-azaspiro[3.5]nonane-7-carboxamide] | 3460 | 1730 | (+) |  | 
10 | Cc1noc(NC(=O)N2CCC3(CC2)CC(c2cccc(Cl)c2F)C3)c1C [Example 29, 2-(3-chloro-2-fluorophenyl)-N-(3,4-dimethylisoxazol-5-yl)-7-azaspiro[3.5]nonane-7-carboxamide] | 3840 | 2470 | (+) |  | 
11 | Cn1nnnc1NC(=O)N1CCC2(CC1)CC(F)(c1cccc(OC(F)(F)F)c1)C2 [Example 53, 2-fluoro-N-(1-methyl-1H-tetrazol-5-yl)-2-[3-(trifluoromethoxy)phenyl]-7-azaspiro[3.5]nonane-7-carboxamide] | 13900 | 1920 | (+) |  | 
12 | Cc1noc(NC(=O)N2CCC3(CC2)CC(F)(c2cccc(Cl)c2)C3)c1C [Example 32, 2-(3-chlorophenyl)-N-(3,4-dimethylisoxazol-5-yl)-2-fluoro-7-azaspiro[3.5]nonane-7-carboxamide] | 2830 | 1320 | (+) |  | 
13 | Cn1nnnc1NC(=O)N1CCC2(CC1)CC(c1cccc(Oc3ccc(C(F)(F)F)cn3)c1)C2 [Example 54, N-(1-methyl-1H-tetrazol-5-yl)-2-(3-{[5-(trifluoromethyl)pyridin-2-yl]oxy}phenyl)-7-azaspiro[3.5]nonane-7-carboxamide] | 21700 | 26800 | (+) |  | 
14 | Cc1noc(NC(=O)N2CCC3(CC(c4ccc(F)c(Cl)c4)C3)C(C)C2)c1C (single isomer, unassigned) [Example 42d, 2-(3-chloro-4-fluorophenyl)-N-(3,4-dimethylisoxazol-5-yl)-5-methyl-7-azaspiro[3.5]nonane-7-carboxamide] |  |  |  | 1100 | 860
